The values below are quoted from earlier work in patent US8309607B2, “Rapid release irbesartan-containing pharmaceutical composition” (ratiopharm GmbH, priority 2006, dated 2012).

The conditions of the data set: in vivo.

`CCCCC1=NC2(CCCC2)C(=O)N1Cc1ccc(-c2ccccc2-c2nnn[nH]2)cc1` [Irbesartan, 2-n-butyl-4-spirocyclopentane-1-[(2′-(tetrazol-5-yl)biphenyl-4-yl)methyl]-2-imidazolin-5-one]: the oral bioavailability entry is given as “acceptable oral bioavailability”.
